Laboratory results from PMC10077444, “Evaluation of In Vivo Biological Activity Profiles of Isoindole-1,3-dione Derivatives: Cytotoxicity, Toxicology, and Histopathology Studies” (ACS Omega, 2023).
Several values for one entry are separate records, joined by “and”; a condition that tells them apart may be missing. Equal values may be shown once.

What was measured:
[1] = system: CD1 mice; conditions: in vivo
[2] = system: A549-Luc lung cancer cells; assay: In vivo xenograft tumor model, tumor size by IVIS imaging; set-up: species or system nude mice; conditions: for tumor size: individual nude mice, Tnd = tumor not detected, Ex = dead; for tumor outcome after treatment: A549-Luc xenograft nude mice, IVIS imaging; for tumor size initially: before treatment, individual nude mice (1)-(5)
Procedure: Luc cell line (A549-Luc cell), which has luciferase activity, was used to determine the cancer treatment potential of compounds 3 and 4 for in vivo experiments. Cells were cultured in DMEM Ham’s F12 [10% FBS, 1% L-glutamine, 1% gentamicin, and 1 mM 4-(2-hydroxyethyl)-1-piperazineethanesulfonic acid] broth in a CO2 incubator set at 37 °C. Sufficient stocks were prepared by passaging the cells twice a week, and cells that actively proliferated in the logarithmic phase were used in the tests.
Approval for monitoring the cancer treatment potential of the synthesized structures in vivo conditions was taken by the Animal Ethics Committee of Ege University on 24.01.2018 with the number 2018-015. Male atypical nude mice, 6–8 weeks old, were used for in vivo xenograft tumor models. […] For the purpose of xenograft administration, nude mice were injected subcutaneously with 100 μL of 5 × 10^6 A549-Luc cell suspension. The presence of cancer after cell administration to nude mice was followed by imaging with an IVIS device. In order to monitor tumor formation and tumor volume detection, luciferin [Biovision Inc., USA; 12 mg/mL in phosphate-buffered saline (PBS)] was injected intraperitoneally followed by visualization with IVIS 5 min later. When tumor volume reaches about 2000 mm^3, cancerous nudes are divided into three groups: the control group, 3 group, and 4 group. Grouping was made as 3–5 animals in each group. The following procedures were prepared according to the groups, and then they were implemented. In addition, the weights of nude mice were regularly checked and recorded.
Compound 3(Y) group: Compound 3(Y) was prepared in DMSO at a concentration of 200 μM, and 20 μL was administered via the tail vein in three doses a week.
Compound 4(X) group: Compound 4(X) was prepared in DMSO at a concentration of 200 μM, and 20 μL was given three doses a week through the tail vein.
Male atypical nude mice aged 6–8 weeks are commonly used in in vivo xenograft tumor models. A549-luc lung cancer cells were injected into nude mice in all three groups, and tumor growth was induced with a xenograft model. For xenograft administration, 100 μL of 5 × 10^6 A549-luc cell suspension was injected subcutaneously into nude mice. After cell application to nude mice, it was determined whether there was cancer or not by imaging with the IVIS device. After the cancer groups were formed, the treatment phase was started. Compound 4(X) substance, compound 3(Y), and cancer control groups were formed, five in each group. Each prepared sample was given to the animals by tail vein administration, three doses (as described in Section 2.3) per week, and the IVIS images taken at 5 min after luciferin (200 μL of 12 mg/mL stock administered […]) at certain time intervals were evaluated. Although no tumor was detected on the 15th day after cell implantation, the treatment was continued for two more weeks and whether the tumor recurred or not was determined by IVIS imaging.

[3] = 28 day subacute toxicity study, weight change
[4] = 7 days, 200 μM, 20 μL tail vein, three doses a week

CC(=O)O[C@H]1C=C[C@H](OC(C)=O)[C@H]2C(=O)N(Cc3ccccc3)C(=O)[C@H]21 [compound 3]
cardiac muscle: increase in the connective tissue between the muscle fibers ([1]; both, CD1, mouse, 28 day): higher level compared to the 4 groups
cardiac muscle: discus intercalaris ([1]; mouse): moderate/high level of erasure
kidney: severity of histopathological findings, compounds compared ([1]; mouse): more severe
liver: severity of histopathological findings, compounds compared ([1]; mouse): more severe
tumor size [2, 4]: Tnd
tumor size ([2]; 15 days): Tnd
tumor size ([2]; 45 days): Tnd
tumor outcome after treatment [2]: completely destroyed
tumor size initially [2]: 404.93 mm^3 and 301.26 mm^3 and 424.93 mm^3 and 731.33 mm^3 and 600.97 mm^3
Weight, group average ([3]; 1st dose (200 μM) female, 7d): 26.732 G
Weight, group average ([3]; 1st dose (200 μM) female, 14d): 27.624 G
Weight, group average ([3]; 1st dose (200 μM) female, 21d): 26.9 G
Weight, group average ([3]; 1st dose (200 μM) female, 28d): 26.61 G
Weight, group average ([3]; 1st dose (200 μM) female, initial): 26.516 G
Weight, group average ([3]; 1st dose (200 μM) male, 7d): 34.102 G
Weight, group average ([3]; 1st dose (200 μM) male, 14d): 35.088 G
Weight, group average ([3]; 1st dose (200 μM) male, 21d): 34.89 G
Weight, group average ([3]; 1st dose (200 μM) male, 28d): 35.932 G
Weight, group average ([3]; 1st dose (200 μM) male, initial): 33.35 G
Weight, group average ([3]; 2nd dose (100 μM) female, 7d): 27.582 G
Weight, group average ([3]; 2nd dose (100 μM) female, 14d): 27.204 G
Weight, group average ([3]; 2nd dose (100 μM) female, 21d): 27.848 G
Weight, group average ([3]; 2nd dose (100 μM) female, 28d): 28.604 G
Weight, group average ([3]; 2nd dose (100 μM) female, initial): 27.71 G
Weight, group average ([3]; 2nd dose (100 μM) male, 7d): 32.196 G
Weight, group average ([3]; 2nd dose (100 μM) male, 14d): 33.33 G
Weight, group average ([3]; 2nd dose (100 μM) male, 21d): 33.42 G
Weight, group average ([3]; 2nd dose (100 μM) male, 28d): 34.952 G
Weight, group average ([3]; 2nd dose (100 μM) male, initial): 32.388 G
Weight, group average ([3]; 3rd dose (50 μM) female, 7d): 23.104 G
Weight, group average ([3]; 3rd dose (50 μM) female, 14d): 23.97 G
Weight, group average ([3]; 3rd dose (50 μM) female, 21d): 24.27 G
Weight, group average ([3]; 3rd dose (50 μM) female, 28d): 25.092 G
Weight, group average ([3]; 3rd dose (50 μM) female, initial): 24.338 G
Weight, group average ([3]; 3rd dose (50 μM) male, 7d): 35.528 G
Weight, group average ([3]; 3rd dose (50 μM) male, 14d): 36.106 G
Weight, group average ([3]; 3rd dose (50 μM) male, 21d): 36.43 G
Weight, group average ([3]; 3rd dose (50 μM) male, 28d): 38.348 G
Weight, group average ([3]; 3rd dose (50 μM) male, initial): 35.076 G

CC(=O)O[C@@H]1[C@@H]2C(=O)N(Cc3ccccc3)C(=O)[C@@H]2C=C[C@H]1Cl [compound 4]
tumor size [2, 4]: Tnd ^a
tumor size ([2]; 15 days): Tnd ^a and Ex
tumor size ([2]; 45 days): Tnd ^a and Ex
tumor outcome after treatment [2]: completely destroyed
tumor size initially [2]: 570.91 mm^3 and 403.71 mm^3 and 482.52 mm^3 and 1518.02 mm^3 and 1124.09 mm^3
